In patent US20220332708A1 (Cytokinetics, Inc., priority 2021, published 2022):

Tested on: Bovine cardiac myofibrils
Assay: Dose-dependent myofibril ATPase modulation (calcium-buffered, pyruvate kinase and lactate dehydrogenase-coupled ATPase assay at pCa25)
Type: biochemical
Conditions: concentration at which ATPase activity was 1.4-fold higher than the bottom of the dose curve, mean of a minimum of two independent tests
How it was run: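 Detergent-skinned bovine cardiac myofibrils (typically 0.25-1.0 mg/ml) in a pyruvate kinase/lactate dehydrogenase-coupled ATPase assay, 1 mM ATP, pH 6.80, free Ca2+ set by EGTA buffer to pCa25. ATP hydrolysis followed by A340; 4-parameter fit, AC1.4 as mean of at least two independent tests.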

Row | AC1.4 [µM] | Compound
1 | 0.1254 | Cc1[nH]c(S(=O)(=O)N[C@@H]2CCc3c([nH]c4ccccc34)C2)cc1C(=O)N1CC(C)(O)C1 [Compound 43]
2 | 0.6379 | CNc1cc2c(cc1S(=O)(=O)N[C@H]1CC[C@@H](Nc3ccccc3)C1)c(=O)[nH]c(=O)n2C (relative stereo) [Compound 19, 1-Methyl-7-(methylamino)-2,4-dioxo-N-((cis)-3-(phenylamino)cyclopentyl)-1,2,3,4-tetrahydroquinazoline-6-sulfonamide]
3 | 0.2277 | Cc1[nH]c(S(=O)(=O)N[C@@H]2CCc3c([nH]c4ccccc34)C2)cc1C(=O)N1CCCC1 [Compound 46, (R)-5-methyl-4-(pyrrolidine-1-carbonyl)-N-(2,3,4,9-tetrahydro-1H-carbazol-2-yl)-1H-pyrrole-2-sulfonamide]
4 | 0.7385 | Cc1nc2cc(OCCN3CCOCC3)c(S(=O)(=O)Nc3ccc(N4C[C@H](C)C[C@@H](C)C4)nc3)cc2c(=O)[nH]1 [Compound 6, N-(6-((3R,5R)-3,5-dimethylpiperidin-1-yl)pyridin-3-yl)-2-methyl-7-(2-morpholinoethoxy)-4-oxo-3,4-dihydroquinazoline-6-sulfonamide]
5 | 6.922 | Cc1[nH]c(S(=O)(=O)NC2CCc3c([nH]c4ccccc34)C2)cc1C(=O)N(C)C (stereo not shown) [Compound 36, N,N,2-trimethyl-5-(N-(2,3,4,9-tetrahydro-1H-carbazol-2-yl)sulfamoyl)-1H-pyrrole-3-carboxamide]
6 | 0.4184 | CNc1cc2c(cc1S(=O)(=O)N[C@H]1C[C@H](c3cc(C(F)(F)F)ccn3)C1)c(=O)[nH]c(=O)n2C [Compound 59]
7 | 9.2363 | Cc1nc2cc(C)c(S(=O)(=O)Nc3ccc(N4C[C@@H](C)C[C@H](C)C4)nc3)cc2c(=O)[nH]1 (racemic) [Compound 9, N-(6-((trans)-3,5-dimethylpiperidin-1-yl)pyridin-3-yl)-2,7-dimethyl-4-oxo-3,4-dihydroquinazoline-6-sulfonamide]

More lines, now with the values behind:

Row | Compound | AC1.4 [µM]
8 | Cc1[nH]c(S(=O)(=O)N[C@@H]2CCc3c([nH]c4ccccc34)C2)cc1C(=O)NCCO [Compound 39, (R)-N-(2-hydroxyethyl)-2-methyl-5-(N-(2,3,4,9-tetrahydro-1H-carbazol-2-yl)sulfamoyl)-1H-pyrrole-3-carboxamide] | 1.722
9 | Cc1[nH]c(S(=O)(=O)N[C@]2(Cc3ccc(Cl)cc3)CCOC2)cc1C(=O)NCC(F)F (single isomer, unassigned) [Compound 65] | 3.2638
10 | Cc1[nH]c(S(=O)(=O)N[C@@H]2CCc3c([nH]c4ccccc34)C2)cc1C(N)=O [Compound 38, (R)-2-methyl-5-(N-(2,3,4,9-tetrahydro-1H-carbazol-2-yl)sulfamoyl)-1H-pyrrole-3-carboxamide] | 4.3985
11 | Cc1[nH]c(S(=O)(=O)N[C@@H]2Cc3cc(F)c(Cl)cc3C2)cc1C(=O)N1CC2(COC2)C1 [Compound 96, (R)-N-(5-chloro-6-fluoro-2,3-dihydro-1H-inden-2-yl)-5-methyl-4-(2-oxa-6-azaspiro[3.3]heptane-6-carbonyl)-1H-pyrrole-2-sulfonamide] | 1.218
12 | Cc1[nH]c(S(=O)(=O)N[C@@H]2Cc3cc(F)c(Cl)cc3C2)cc1C(=O)N1CC(C)(C#N)C1 (single isomer, unassigned) [Compound 83] | 0.06985
13 | Cc1[nH]c(S(=O)(=O)N[C@@H]2COc3cc(F)c(Cl)cc3[C@H]2O)cc1C(=O)N1CC(C)(C#N)C1 [Compound 77, N-((3R,4R)-6-chloro-7-fluoro-4-hydroxychroman-3-yl)-4-(3-cyano-3-methylazetidine-1-carbonyl)-5-methyl-1H-pyrrole-2-sulfonamide] | 0.1896
